Test results as given in US12600728B2, “Interleukin-17 inhibitors” (priority 2020, dated 2026).
Where two headings read alike, the source gives them in different places.

How the values were obtained:
[1] = molecular target: recombinant human IL-17AA (Homo sapiens, UniProt Q16552); experiment: IL-6 release from NHDF cells, IL-17AA plus TNF-α stimulation; assay type: cell-based; settings: 24 hours, IL-6 by ELISA
Method: IL-6 Release from NHDF Cells (Normal Human Dermal Fibroblasts)
NHDF cells isolated from normal adult mesoderm, connective tissues were cultured in fibroblast growth medium containing 2% supplement. […] The cells were allowed to adhere overnight before they were incubated with the compound/cytokine cocktail.
Diluted compounds were pre-incubated with recombinant human IL-17AA or IL-17AF plus human TNF-α for 30 minutes at room temperature on a shaker. […] The cells were incubated with the compound/cytokines cocktail for 24 hours at 37° C. (5% CO2). […] The final DMSO or plasma concentrations were 0.1% or 20%, respectively. All compound incubations were done in duplicate. The supernatants were collected to quantify IL-6 by ELISA according to the manufacturers instructions. The optical density was measured at 450 nm by an EnVision Multilabel Plate Reader (Perkin Elmer). The IL-6 levels produced after TNF-α stimulation were subtracted from the IL-6 produced after IL-17/TNF-α co-stimulation. These IL-17-specific IL-6 concentrations were used for […] value calculation.

[2] = molecular target: biotinylated human IL-17A / AF647-labeled human IL-17RA (Homo sapiens, UniProt Q16552); experiment: Human IL-17A×IL-17RA TR-FRET assay; assay type: binding
Method: Human IL-17A×IL-17RA TR-FRET Assay
Each compound concentration is tested in duplicate.
The final total assay volume is 10 μL.
Each plate contains test compounds in columns 1-22 and controls in columns 23 and 24. The neutral control (NC) contains all the assay components, but DMSO instead of test compound. […] The fluorescence values for emission at 615 nm and 665 nm are loaded to the evaluation software Helios.
From the activity data at each compound concentration, the IC50 values are obtained using the 4-parameter logistic function (“Hill-slope model”) of Helios.

[3] = NHDF cells, IL-17AA 30 pM plus TNF-α 6 pM, read-out: IL17AA + TNF IC50 IL-6
[4] = TR-FRET, biotinylated human IL-17A 5 nM, AF647-labeled human IL-17RA 30 nM, read-out: IL17AA FRET/ IL17Rawt IC50
[5] = NHDF cells, IL-17AA 30 pM + TNF-α 6 pM, read-out: IL17AA + TNF IC50 IL-6
[6] = TR-FRET, 5 nM IL-17A, 30 nM IL-17RA, read-out: IL17AA FRET/ IL17Rawt IC50

recombinant human IL-17AA, sequence (Q16552 24-155): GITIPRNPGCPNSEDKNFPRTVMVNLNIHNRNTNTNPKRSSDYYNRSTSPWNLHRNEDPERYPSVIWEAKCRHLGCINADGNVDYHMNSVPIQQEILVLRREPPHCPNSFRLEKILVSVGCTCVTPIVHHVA
biotinylated human IL-17A / AF647-labeled human IL-17RA, sequence (Q16552 24-155): as above

Structure (SMILES) | IC50 [1, 3] [µM] | IC50 [2, 4] [µM] | IC50 [1, 5] [µM] | IC50 [2, 6] [µM] | other results
Cc1cc[n+]([O-])c(C)c1-c1ccc(NC(=O)C(NC(=O)c2ccnn2C)C2CCC(C(F)(F)F)CC2)cc1 [Example 24, 2,4-dimethyl-3-(4-((S)-2-(1-methyl-1H-pyrazole-5-carboxamido)-2-((1r,4S)-4-(trifluoromethyl)cyclohexyl)acetamido)phenyl)pyridine 1-oxide] |  |  |  |  | IC50 ([1]; IL17AA + TNF IC50 IL-6, NHDF cells, IL-17AA 30 pM plus TNF-α 6 pM): 0.048 µM; IC50 ([2]; IL17AA FRET/ IL17Rawt IC50, TR-FRET, biotinylated human IL-17A 5 nM, AF647-labeled human IL-17RA 30 nM): 0.114 µM
Cc1cc[n+]([O-])c(C)c1-c1ccc(NC(=O)C(NC(=O)c2ccnn2C)C2CCC(C)CC2)cc1 [Example 3, 2,4-dimethyl-3-(4-((S)-2-(1-methyl-1H-pyrazole-5-carboxamido)-2-((1r,4S)-4-methylcyclohexyl)acetamido)phenyl)pyridine 1-oxide] | 0.007 | 0.024 |  |  | 
CC(=O)N1CCn2c(ccc2C(=O)NC(C(=O)Nc2ccc(-c3c(Cl)cc[n+]([O-])c3C)c(F)c2)[C@H]2C[C@@H]3C[C@@H]3C2)C1 (stereo partly drawn) [Example 194, 3-(4-(2-(2-acetyl-1,2,3,4-tetrahydropyrrolo[1,2-a]pyrazine-6-carboxamido)-2-((1R,3s,5S)-bicyclo[3.1.0]hexan-3-yl)acetamido)-2-fluorophenyl)-4-chloro-2-methylpyridine 1-oxide] |  |  | 0.047 | 0.165 | 
Cc1c(-c2ccc(NC(=O)[C@@H](NC(=O)c3ccnn3C(C)C)C3CCCCC3)cc2F)ccc[n+]1[O-] [Example 82, (S)-3-(4-(2-cyclohexyl-2-(1-isopropyl-1H-pyrazole-5-carboxamido)acetamido)-2-fluorophenyl)-2-methylpyridine 1-oxide] | 0.035 | 0.085 |  |  | 
Cc1cc[n+]([O-])c(C)c1-c1ccc(NC(=O)[C@H](Cc2ccccc2F)NC(=O)c2ccnn2C)cc1 [Example 217, (S)-3-(4-(3-(2-fluorophenyl)-2-(1-methyl-1H-pyrazole-5-carboxamido)propanamido)phenyl)-2,4-dimethylpyridine 1-oxide] |  |  | 2.96 | 1.1 | 
Cc1c(-c2c(F)cc(NC(=O)[C@@H](NC(=O)c3ccnn3C)C3CCCCC3)cc2F)c(Cl)cc[n+]1[O-] [Example 61, (S)-4-chloro-3-(4-(2-cyclohexyl-2-(1-methyl-1H-pyrazole-5-carboxamido)acetamido)-2,6-difluorophenyl)-2-methylpyridine 1-oxide] | 0.016 | 0.018 |  |  | 
Cc1cc[n+]([O-])c(C)c1-c1ccc(NC(=O)C(NC(=O)c2ccc3n2CCN(C)C3)C2CCC(C)CC2)cc1 [Example 121, 2,4-dimethyl-3-(4-((S)-2-(2-methyl-1,2,3,4-tetrahydropyrrolo[1,2-a]pyrazine-6-carboxamido)-2-((1r,4S)-4-methylcyclohexyl)acetamido)phenyl)pyridine 1-oxide] | 0.017 | 0.111 |  |  | 
Cc1nocc1C(=O)N[C@H](C(=O)Nc1ccc(-c2c(Cl)cc[n+]([O-])c2C)c(F)c1)C1CCCCC1 [Example 14, 4-chloro-3-(4-((S)-2-cyclohexyl-2-(3-methylisoxazole-4-carboxamido)acetamido)-2-fluorophenyl)-2-methylpyridine 1-oxide] | 0.009 | 0.024 |  |  | 
Cc1cc[n+]([O-])c(C)c1-c1ccc(NC(=O)C(NC(=O)c2ccc3n2CCNC3)C2CC3CC3C2)cc1 [Example 201, 3-(4-((S)-2-((1R,3r,5S)-bicyclo[3.1.0]hexan-3-yl)-2-(1,2,3,4-tetrahydropyrrolo[1,2-a]pyrazine-6-carboxamido)acetamido)phenyl)-2,4-dimethylpyridine 1-oxide] |  |  | 0.061 | 0.252 | 
Cc1cc[n+]([O-])c(C)c1-c1ccc(NC(=O)[C@@H](NC(=O)c2ccnn2C(C)C)[C@H]2CCCc3ccccc32)cc1 [Example 50, 3-(4-((S)-2-(1-isopropyl-1H-pyrazole-5-carboxamido)-2-((S)-1,2,3,4-tetrahydronaphthalen-1-yl)acetamido)phenyl)-2,4-dimethylpyridine 1-oxide] | 0.001 | 0.023 |  |  | 
